The results in this text go back to PubChem BioAssay (NCI).

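Test compounds were applied to cells in 96-well plates for 48 hours at 5 doses. GI50: concentration for 50% inhibition of growth. TGI marks complete inhibition of growth.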 Some results are limits rather than exact numbers.

Some test systems named below: CCRF-CEM leukemia; NCI-H460 lung; UACC-62 melanoma; CAKI-1 renal; A549 NSCLC; K-562 leukemia; SW-620 colon; BT-549 breast; MDA-MB-435; HS 578T breast.
What all share (experiment): NCI anticancer screen, dose series, 48 h

Turning to `O=c1cc(/C=C/c2ccccc2)c2ccc(O/C(=C\c3ccccc3)c3nc4ccccc4c(=O)o3)cc2o1`, the TGI is 66.5 µM in the assay on CCRF-CEM leukemia; above 100 µM in the assay on NCI-H460 lung; above 100 µM with UACC-62 melanoma; above 100 µM in the assay with CAKI-1 renal; above 100 µM in the assay on A549 NSCLC; above 100 µM in the assay with K-562 leukemia. The same compound had a TGI in the assay with SW-620 colon above 100 µM.
In the case of `OC1OC2COC(c3ccccc3)OC2C(O)C1O` (stereo not given), the TGI with CCRF-CEM leukemia, in the assay with NCI-H460 lung, in the assay on UACC-62 melanoma, in the assay on CAKI-1 renal, in the assay on A549 NSCLC and in the assay on K-562 leukemia was above 100 µM each time. In the assay on SW-620 colon, this compound registered a TGI above 100 µM.
Consider `CC12CCC(C)(c3cc(O)c(O)cc31)c1cc(O)c(O)cc12`, for which the TGI was 11.1 µM in the assay with CCRF-CEM leukemia; 35.7 µM with NCI-H460 lung; 36.2 µM with UACC-62 melanoma; 23.6 µM in the assay with CAKI-1 renal; 94.4 µM in the assay on A549 NSCLC; 29.5 µM in the assay on K-562 leukemia. The compound further came in with a TGI in the assay on SW-620 colon of 40.9 µM.
Consider `CCC1(O)CC(c2ccccc2)N(C)C(c2ccccc2)C1` (stereo not given), for which the TGI in the assay with CCRF-CEM leukemia, with NCI-H460 lung, in the assay with UACC-62 melanoma, in the assay on CAKI-1 renal, with A549 NSCLC and in the assay with K-562 leukemia was above 100 µM each time. The TGI in the assay on SW-620 colon was above 100 µM.
On to `O=c1c2ccc(Br)cc2nc(-c2ccccc2)n1NC1OC(CO)C(O)C(O)C1O` (stereo not given), for which the TGI in the assay on CCRF-CEM leukemia, in the assay on NCI-H460 lung, in the assay with UACC-62 melanoma, in the assay on CAKI-1 renal, with A549 NSCLC and in the assay on K-562 leukemia was above 100 µM in each case. Further, in the assay with SW-620 colon, the TGI was above 100 µM.
Regarding `CC1(C)OC(=O)C(c2ccsc2)C(=O)O1`, the TGI with CCRF-CEM leukemia, with NCI-H460 lung, in the assay with UACC-62 melanoma, with CAKI-1 renal, in the assay with A549 NSCLC and with K-562 leukemia was above 100 µM in each case. The compound further registered a TGI in the assay with SW-620 colon above 100 µM.
Consider `COc1ccc2c(c1)cn1c3ccc(OC)cc3[nH]c(=O)c21`, for which the GI50 in the assay on BT-549 breast is 0.0407 µM; in the assay with MDA-MB-435, below 0.01 µM; in the assay on UACC-62 melanoma it was below 0.0174 µM; in the assay with CAKI-1 renal, below 0.01 µM; with A549 NSCLC, below 0.0205 µM; in the assay with SW-620 colon, below 0.0147 µM. Also, the TGI in the assay on BT-549 breast turned out to be 1.17 µM; with MDA-MB-435, 0.0116 µM; with UACC-62 melanoma, 1.39 µM; with A549 NSCLC, 1.33 µM; with SW-620 colon, 1.36 µM.
As for `O=C(c1ccccc1)C(c1ccccc1)C1(O)C(=O)Nc2ccc(Br)cc21` (stereo not given), the TGI in the assay with CCRF-CEM leukemia was 47.7 µM; with NCI-H460 lung, above 100 µM; in the assay with UACC-62 melanoma, 39.2 µM; in the assay on CAKI-1 renal, above 100 µM; in the assay on A549 NSCLC it was above 100 µM; in the assay on K-562 leukemia, 80.8 µM. This compound also showed a TGI with SW-620 colon above 100 µM.
As for `Fc1cccc(C2SCc3nc4ccccc4n32)c1` (stereo not given), the TGI in the assay on CCRF-CEM leukemia, in the assay with NCI-H460 lung, in the assay with UACC-62 melanoma, with CAKI-1 renal, in the assay on A549 NSCLC and with K-562 leukemia was above 100 µM throughout. In the assay with SW-620 colon, this compound yielded a TGI above 100 µM.
On to `COc1cc(Cl)c(C)cc1NC(=O)c1cc2ccccc2cc1O`, for which the GI50 with HS 578T breast was 2.1 µM; in the assay on CCRF-CEM leukemia, 3.11 µM; in the assay with NCI-H460 lung, 2.74 µM; in the assay with MDA-MB-435, 2.6 µM; with UACC-62 melanoma it was 1.49 µM; in the assay on CAKI-1 renal, 1.65 µM. Moreover, the GI50 in the assay on A549 NSCLC is 2.96 µM; with K-562 leukemia, 2.82 µM; with SW-620 colon it was 3.27 µM. Besides, the TGI with HS 578T breast turned out to be 7.35 µM; with CCRF-CEM leukemia it was 19.6 µM; with NCI-H460 lung it was 9.63 µM; in the assay on MDA-MB-435, 8.92 µM; in the assay with UACC-62 melanoma, 8.14 µM; in the assay with CAKI-1 renal, 10.6 µM. The TGI was determined as 10.6 µM in the assay on A549 NSCLC, 23 µM in the assay with K-562 leukemia and 13.6 µM in the assay with SW-620 colon.
On to `Cc1cc2c(C=O)[nH]nc2c(C#N)c1C`, for which the TGI with CCRF-CEM leukemia, in the assay on NCI-H460 lung, with UACC-62 melanoma, with A549 NSCLC, in the assay on K-562 leukemia and in the assay on SW-620 colon was above 100 µM each time.
On to `COc1cc(C2C(C(=O)Nc3ccccc3C)=C(C)NC(C)=C2C(=O)Nc2ccccc2C)ccc1O`, for which the TGI with CCRF-CEM leukemia, in the assay with NCI-H460 lung, in the assay with UACC-62 melanoma, in the assay with CAKI-1 renal, in the assay with A549 NSCLC and in the assay on K-562 leukemia was above 100 µM throughout. In addition, the TGI in the assay with SW-620 colon is above 100 µM.
Take `O=C1OC(=O)C2C1C1(c3ccccc3)OC2(c2ccccc2)c2c(Br)c(Br)c(Br)c(Br)c21` (stereo not given): the TGI in the assay on CCRF-CEM leukemia, in the assay with NCI-H460 lung, with UACC-62 melanoma, with CAKI-1 renal, in the assay on A549 NSCLC and in the assay on K-562 leukemia was above 100 µM each time. In addition, the TGI in the assay with SW-620 colon was above 100 µM.
Consider `CCN(CC)[C@@H]1c2cc3c(cc2C(c2cc(OC)c(O)c(OC)c2)C2C(=O)CO[C@@H]21)OCO3` (stereo not given in full), for which the TGI in the assay on CCRF-CEM leukemia, with NCI-H460 lung, in the assay with UACC-62 melanoma, with CAKI-1 renal, in the assay with A549 NSCLC and in the assay with K-562 leukemia was above 100 µM in each case. Further, the TGI with SW-620 colon was above 100 µM.
Consider `CCOC(=O)/C(C#N)=C/c1[nH]c(C)c(C)c1C`, for which the TGI in the assay on CCRF-CEM leukemia, in the assay on NCI-H460 lung, with UACC-62 melanoma, in the assay on CAKI-1 renal, in the assay on A549 NSCLC and in the assay with K-562 leukemia was above 100 µM in each case. This compound also gave a TGI in the assay on SW-620 colon above 100 µM.
Turning to `COc1ccc(/C=C\c2cc(OC)c(OC(C)=O)c(OC)c2)cc1`, the TGI in the assay with CCRF-CEM leukemia is 57.3 µM; in the assay with UACC-62 melanoma, 33.5 µM; in the assay on CAKI-1 renal it was above 100 µM; with A549 NSCLC, 78 µM; in the assay on K-562 leukemia it was 31 µM; in the assay on SW-620 colon it was above 100 µM.
